From US8785439B2, “2,5,7-substituted oxazolopyrimidine derivatives” (Sanofi, priority 2010, dated 2014) come the findings set out here.

This test has as its target T1, human Edg-1 receptor (Homo sapiens, UniProt P21453).
T1 construct: FLAG (N); expressed in transfected cells; membrane preparation
Briefly: GTP-γ-S assay using human Edg-1 receptors (SPA, CHO Flp-In cell membrane preparation). It is filed as biochemical. The following applies: test compound at 10 μM; high control 10 μM S1P regarded as 100% activation; background-corrected; triplicate; read-out: % Activation (Edg-1 receptor activation in percent of the activation by 10 μM S1P). In short, it runs like this:
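Membranes from CHO Flp-In cells stably overexpressing N-terminally FLAG-tagged human Edg-1 were used in a scintillation-proximity GTP-γ-S binding assay to measure receptor activation by compounds.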

T1 sequence (P21453 whole entry): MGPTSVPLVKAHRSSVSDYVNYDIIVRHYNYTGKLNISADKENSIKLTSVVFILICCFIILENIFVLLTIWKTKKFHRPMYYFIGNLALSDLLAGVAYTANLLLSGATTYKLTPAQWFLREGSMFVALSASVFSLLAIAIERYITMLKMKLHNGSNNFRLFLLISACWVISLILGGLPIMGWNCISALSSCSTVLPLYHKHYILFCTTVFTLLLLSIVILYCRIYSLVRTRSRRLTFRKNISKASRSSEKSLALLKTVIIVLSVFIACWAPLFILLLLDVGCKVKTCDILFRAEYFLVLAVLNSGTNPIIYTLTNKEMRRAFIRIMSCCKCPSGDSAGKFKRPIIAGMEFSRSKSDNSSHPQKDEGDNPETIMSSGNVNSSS

With `CCCOc1nc(Oc2ccc(C)cc2OC)nc2oc(-c3cccc(C)c3)nc12` [Example 135, 5-(2-methoxy-4-methyl-phenoxy)-7-propoxy-2-(3-methyl-phenyl)-oxazolo[5,4-d]pyrimidine], the activation at 10 µM was determined as 1%.

For `CCCOc1nc(OC2CCCCC2)nc2oc(-c3cc(F)ccc3Cl)nc12` [Example 80, 2-(2-chloro-5-fluoro-phenyl)-5-cyclohexyloxy-7-propoxy-oxazolo[5,4-d]pyrimidine], the activation at 10 µM stood at 46%.

As for `CCCOc1nc(Oc2cc(F)cc(F)c2)nc2oc(-c3cccc(C)c3)nc12` [Example 127, 5-(3,5-difluoro-phenoxy)-7-propoxy-2-(3-methyl-phenyl)-oxazolo[5,4-d]pyrimidine], the activation at 10 µM turned out to be 110%.

`CCCOc1nc(Oc2ccc(SC(F)(F)F)cc2)nc2oc(-c3cccc(C)c3)nc12` [Example 112, 7-propoxy-2-(3-methyl-phenyl)-5-(4-trifluoromethylsulfanyl-phenoxy)-oxazolo[5,4-d]pyrimidine]: the activation at 10 µM is 46%.

On to `CCCOc1nc(Oc2cc(Cl)ccc2C)nc2oc(-c3cccc(F)c3)nc12` [Example 67, 5-(5-chloro-2-methyl-phenoxy)-2-(3-fluoro-phenyl)-7-propoxy-oxazolo[5,4-d]pyrimidine], for which the activation at 10 µM came out at 84%.

On to `CCCOc1nc(Oc2ccc(Cl)c(F)c2)nc2oc(-c3cccc(C)c3)nc12` [Example 74, 5-(4-chloro-3-fluoro-phenoxy)-7-propoxy-2-(3-methyl-phenyl)-oxazolo[5,4-d]pyrimidine], for which the activation at 10 µM was found to be 69%.

`Cc1ccc(F)cc1Oc1nc(OCC2CC2)c2nc(-c3ccc(Cl)c(Cl)c3)oc2n1` [Example 159, 7-cyclopropylmethoxy-2-(3,4-dichloro-phenyl)-5-(5-fluoro-2-methyl-phenoxy)-oxazolo[5,4-d]pyrimidine]: the activation at 10 µM was 55%.

As for `CCCOc1nc(Oc2ccccc2F)nc2oc(-c3cccc(O)c3)nc12` [Example 42, 3-[5-(2-fluoro-phenoxy)-7-propoxy-oxazolo[5,4-d]pyrimidin-2-yl]-phenol], the activation at 10 µM turned out to be 130%.

On to `Cc1cccc(-c2nc3c(OCC4CC4)nc(SC4CCS(=O)(=O)C4)nc3o2)c1` (stereo not drawn) [Example 28, 7-cyclopropylmethoxy-5-(1,1-dioxo-tetrahydro-1lambda6-thiophen-3-ylsulfanyl)-2-(3-methyl-phenyl)-oxazolo[5,4-d]pyrimidine], for which the activation at 10 µM is 69%.

Regarding `CCCOc1nc(Oc2cccc(S(N)(=O)=O)c2)nc2oc(-c3cccc(F)c3)nc12` [Example 23, 3-[2-(3-fluoro-phenyl)-7-propoxy-oxazolo[5,4-d]pyrimidin-5-yloxy]-benzenesulfonamide], the activation at 10 µM turned out to be 47%.

Regarding `CCCOc1nc(OCC2(C)COC2)nc2oc(-c3cc(F)ccc3Cl)nc12` [Example 152, 2-(2-chloro-5-fluoro-phenyl)-5-(3-methyl-oxetan-3-ylmethoxy)-7-propoxy-oxazolo[5,4-d]pyrimidine], the activation at 10 µM is 46%.

On to `CCCOc1nc(Sc2cc(F)ccc2C)nc2oc(-c3cc(F)ccc3Cl)nc12` [Example 153, 2-(2-chloro-5-fluoro-phenyl)-5-(5-fluoro-2-methyl-phenylsulfanyl)-7-propoxy-oxazolo[5,4-d]pyrimidine], for which the activation at 10 µM came out at 108%.

`Clc1ccc(-c2nc3c(OCC4CC4)nc(Oc4ccccc4)nc3o2)cc1Cl` [Example 110, 7-cyclopropylmethoxy-2-(3,4-dichloro-phenyl)-5-phenoxy-oxazolo[5,4-d]pyrimidine]: the activation at 10 µM is 80%.

As for `CCCOc1nc(NC2CCOCC2)nc2oc(-c3cc(F)ccc3Cl)nc12` [Example 57, [2-(2-chloro-5-fluoro-phenyl)-7-propoxy-oxazolo[5,4-d]pyrimidin-5-yl]-(tetrahydro-pyran-4-yl)-amine], the activation at 10 µM turned out to be 80%.

With `Fc1cccc(-c2nc3c(OCC4CC4)nc(Oc4ccccc4F)nc3o2)c1` [Example 32, 7-cyclopropylmethoxy-5-(2-fluoro-phenoxy)-2-(3-fluoro-phenyl)-oxazolo[5,4-d]pyrimidine], the activation at 10 µM turned out to be 61%.
